Data set [1] concerns the target T1, kinase domain protein of RC kinase (Homo sapiens, UniProt Q56UN5).
T1 sequence (Q56UN5 1061-1324 limits assumed): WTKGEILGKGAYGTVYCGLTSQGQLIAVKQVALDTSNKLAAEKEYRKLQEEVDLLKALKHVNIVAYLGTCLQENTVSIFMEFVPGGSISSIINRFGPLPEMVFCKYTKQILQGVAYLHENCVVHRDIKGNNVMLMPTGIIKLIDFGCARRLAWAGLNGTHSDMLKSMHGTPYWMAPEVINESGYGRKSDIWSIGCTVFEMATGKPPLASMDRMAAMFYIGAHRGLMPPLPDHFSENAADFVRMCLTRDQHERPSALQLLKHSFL
The data set can be described thus: Enzymatic assay for kinase inhibitory activity (Crebtide substrate, LANCE read-out). The data set is classed as biochemical. Particulars: compound at 1 μM. The procedure, abridged: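 Compound tested at 1 μM final in HEPES/MgCl2/DTT buffer with 50 nM Crebtide and kinase domain at 1 μM ATP; full-length kinase at 3 μM ATP after 45 min preincubation. Reaction 45 min at room temperature, stopped with EDTA, read by LANCE TR-FRET (665/615 nm). Activity binned as % inhibition at 1 μM.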

Each structure is given as a SMILES string.

Usually melting point stands for the temperature, or range, at which the solid turns liquid. One may read the inhibition as how much of the control response was suppressed. Regarding `NC(=O)c1c(Nc2cccc(Cl)c2)n[nH]c1N=Cc1ccc(O)c([N+](=O)[O-])c1` [Compound B2, 3-((3-chlorophenyl)amino)-5-((4-hydroxy-3-nitrobenzylidene)amino)-1H-pyrazole-4-carboxamide], the melting point fell in the range of 296 to 298 °C. In data set [1], the inhibition at 1 µM was not below 50%.
Molecule `COc1ccc(C(F)(F)F)cc1/C=N/c1[nH]nc(Nc2cccc(Cl)c2)c1C#N` [Compound A75] came in with a melting point of 189 to 197 °C. For the same molecule, in data set [1], the inhibition at 1 µM was not above 5%.
For `NC(=O)c1c(Nc2cccc(Cl)c2)n[nH]c1/N=C/c1cc(Br)ccc1O` [Compound B49, 5-((5-bromo-2-hydroxybenzylidene)amino)-3-((3-chlorophenyl)amino)-1H-pyrazole-4-carboxamide], the melting point is 281 to 283 °C. The inhibition at 1 µM in data set [1] lay in the range of 5 to 20%.
As to `COc1ccc(/C=N/c2[nH]nc(Nc3ccccc3Cl)c2C(N)=O)cc1[N+](=O)[O-]` [Compound B118], the melting point lay in the range of 304 to 306 °C. Besides, in data set [1], the inhibition at 1 µM fell in the range of 5 to 20%.
The like results for `N#Cc1c(Nc2ccccc2)n[nH]c1/N=C/c1cccc2ccccc12` [Compound A8] were, in that order, 259 to 263 °C and 5 to 20%.
In the same order, the values of `CC(C)(C)c1ccc(Nc2n[nH]c(/N=C/c3ccc(Cl)cc3)c2C#N)cc1` [Compound A53] are 288 to 290 °C and 5 to 20%.
In the case of `COc1ccc(/C=N/c2[nH]nc(Nc3cccc(Cl)c3)c2C#N)cc1` [Compound A13], the melting point lay in the range of 263 to 266 °C. Moreover, in data set [1], the inhibition at 1 µM lay within 5 to 20%.
As for `N#Cc1c(Nc2cccc(Cl)c2)n[nH]c1/N=C/c1cncc(N2CCCC2)c1` [Compound A86], the melting point was 305 to 309 °C. In data set [1], the inhibition at 1 µM is not above 5%.

The values are drawn from patent US9365556B2, “3,5-diaminopyrazole kinase inhibitors” (Axikin Pharmaceuticals, Inc., priority 2012, dated 2016).
